The source of these data is patent US9382256B2, “Formulation of Syk inhibitors” (Gilead Connecticut, Inc., priority 2013, dated 2016).

Structures can show the parent of a compound that is named as a salt.

Data set [1] is described as follows: Intrinsic dissolution rate, rotating disk apparatus. It counts as physicochemical. Particulars: 100 rpm, 37±0.5° C., 500 mL. Here is the method:
Intrinsic dissolution measurements were conducted using a rotating disk apparatus. Disks of Compound 1, Compound 2 and Compound 3 were separately prepared by directly compressing 100 mg of a powder of the respectively compounds in a die at a pressure of 2500 psi for 2 minutes using a hydraulic press (Carver Press, Fred Carver, NJ, USA). The exposed surface area for the resulting disks was 0.5 cm^2. A USP dissolution apparatus maintained at 37±0.5° C. was used for the dissolution study. Each dissolution vessel contained 500 mL of aqueous dissolution medium of 0.05 N HCl or pH 6.8 20 mM phosphate buffer with 1% cetyltrimetrylammonium bromide (CTAB). The disk holder (die) was half-immersed into the dissolution medium and rotated at 100 rpm. Samples were withdrawn at specified time intervals and the amount of compound dissolved was determined by HPLC.
The amount of compound dissolved at each time point was plotted versus time and the observed dissolution rate (mg/min) was obtained from the slope of the plot. The observed dissolution rate was divided by the surface area of the compound disk (0.5 cm^2) to obtain the intrinsic dissolution rate.

Data set [2] in a line: Physical stability of dry granulation formulation during processing and storage (XRPD). The format is physicochemical. Particulars: intragranular blend, milled granules, final blend (FIG. 4).

For `c1cn2cc(-c3ccc4cn[nH]c4c3)nc(Nc3ccc(N4CCOCC4)cc3)c2n1` [Compound 1], in data set [1], the “Intrinsic dissolution rate in pH 1.3 0.05N HCl with 0.9% NaCl” value turned out to be 0.00046 mg/min/cm^2.

Consider `c1cn2cc(-c3ccc4cn[nH]c4c3)nc(Nc3ccc(N4CCOCC4)cc3)c2n1` [bis-mesylate salt of Formula IA], for which the “form change by XRPD during processing” value in data set [2] is “no form change was observed”.
